The target in the experiment is T1, full-length Abl1 NanoLuc fusion (Abl1-Nluc, NLuc-Abl1) (Homo sapiens, UniProt P00519).
T1 construct: full-length Abl1 fused to the C-terminus of NanoLuc luciferase (Promega plasmid), transiently expressed in HEK293T cells
Put plainly: NanoBRET tracer isotherm in live HEK293T cells. To be noted: labelled compound; […] h; ATP site; read-out: Kd,app. Type of experiment: cell-based. From the text:
NanoBRET tracer isotherm in live HEK293T cells on full-length Abl1 NanoLuc fusion (Abl1-Nluc, NLuc-Abl1) | tracer probe (K-4, Promega), suitable for all mutants
For orientation: Bioluminescence resonance energy transfer reports proximity on the nanometre scale.

T1 sequence (P00519 whole entry, the tested form may be a part): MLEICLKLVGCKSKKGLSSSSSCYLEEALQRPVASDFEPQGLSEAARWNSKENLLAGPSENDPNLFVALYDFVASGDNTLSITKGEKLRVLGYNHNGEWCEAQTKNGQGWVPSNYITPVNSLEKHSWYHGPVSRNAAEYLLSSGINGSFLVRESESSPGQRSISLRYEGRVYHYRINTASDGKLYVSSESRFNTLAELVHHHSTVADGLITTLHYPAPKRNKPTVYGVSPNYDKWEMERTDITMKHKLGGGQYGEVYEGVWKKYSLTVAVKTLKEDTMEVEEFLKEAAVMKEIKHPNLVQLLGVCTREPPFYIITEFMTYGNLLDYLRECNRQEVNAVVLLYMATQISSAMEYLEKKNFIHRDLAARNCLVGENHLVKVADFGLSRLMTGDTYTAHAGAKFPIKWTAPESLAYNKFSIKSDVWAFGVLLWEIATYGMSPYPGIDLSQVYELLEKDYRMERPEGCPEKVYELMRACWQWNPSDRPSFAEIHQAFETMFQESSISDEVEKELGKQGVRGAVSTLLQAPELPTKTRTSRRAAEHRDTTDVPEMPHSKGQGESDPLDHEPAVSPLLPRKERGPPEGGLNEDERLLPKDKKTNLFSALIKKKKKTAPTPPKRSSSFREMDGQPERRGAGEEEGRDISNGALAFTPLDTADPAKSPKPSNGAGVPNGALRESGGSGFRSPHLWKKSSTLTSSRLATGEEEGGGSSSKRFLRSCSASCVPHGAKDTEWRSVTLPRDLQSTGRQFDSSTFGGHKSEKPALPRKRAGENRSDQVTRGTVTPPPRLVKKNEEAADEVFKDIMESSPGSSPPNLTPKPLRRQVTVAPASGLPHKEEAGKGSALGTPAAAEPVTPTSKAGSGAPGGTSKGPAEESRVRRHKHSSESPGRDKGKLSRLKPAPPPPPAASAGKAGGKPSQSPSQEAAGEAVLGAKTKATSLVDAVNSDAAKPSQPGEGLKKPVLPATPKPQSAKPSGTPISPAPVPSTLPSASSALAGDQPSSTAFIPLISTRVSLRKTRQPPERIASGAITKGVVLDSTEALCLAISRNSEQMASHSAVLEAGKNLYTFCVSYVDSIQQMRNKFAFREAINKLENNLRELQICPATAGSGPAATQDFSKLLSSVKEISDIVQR

For NanoBRET tracer K-4 (Promega), the Kd amounted to 38.6 nM.

The values above are taken from article doi:10.1101/2021.06.28.449968v1 (biorxiv, 2021).
